Literature values, collected in PMC4871733 (Nature chemical biology, 2016).

Columns and labels:
[1] = after 30 minute exposure
[2] = after 30 minute exposure; remark: listed apart in the source
[3] = not given; remark: listed apart in the source
[4] = after 30 minute exposure; remark: listed apart in the source

For `Cn1c2cc([S+](C)[O-])sc2c2cnn(Cc3cccc(N)c3)c(=O)c21` (centres unmarked) [ML265], the Efflux ratio is given as 1.35, the “Stability in rat liver microsomes” value [1] is given as greater than 90% and the “Stability in mouse liver microsomes” value [2] is given as greater than 90%. The Aqueous kinetic solubility [3] was 79 µM and the “Stability in human liver microsomes” value [4] was greater than 90%.
